Among the data in patent US11548903B2, “Bicyclic thiazine and oxazine derivatives as beta-secretase inhibitors and methods of use” (AMGEN INC., priority 2016, dated 2023) are IC50 values, retold here.

Structures are written as SMILES. Where two headings read alike, the source gives them in different places.

Assay [1] addresses human recombinant BACE1 (Homo sapiens (Human), UniProt P56817). Put plainly: In vitro enzymatic BACE1 FRET assay. The assay is classed as biochemical. To be noted: read-out: BACE1 Enzyme IC50. The method, then:
(§1) In Vitro Enzymatic BACE1 and BACE2 FRET (Fluorescence Resonance Energy Transfer) Assays […] These recombinant proteins were further purified using Ni-NTA affinity chromatography (Qiagen). […] The assay was effectively started by the addition of FRET substrate (50 nM) and the combination was incubated for one hour. The FRET assay was terminated by the addition of tris buffer, which raised the pH to neutrality, and the fluorescence was determined. The FRET substrate was a peptide with commercially available fluorophore and quencher, on opposite sides of the BACE cleavage site. The specific FRET substrate used in this assay was made by Amgen in-house. Commercially available FRET substrates, for example, the FRET substrate offered with the BACE1 FRET Assay Kit sold by ThermoFisher Scientific (Catalog Number P2985), may be used in this assay with the appropriate modifications, which are within the purview of the ability of a person with ordinary skill in the art. Proteolytic cleavage of the FRET substrate released quenching of fluorescence (excitation 488 nm and emission 590 nm).

The target of assay [2] is Recombinant CatD (Homo sapiens (Human), UniProt P07339). As to the kind of experiment: In vitro enzymatic Cathepsin D (CatD) FRET assay. The assay is classed as biochemical. The settings on record: read-out: Cat D Enzyme IC50. Here is the method: In Vitro Enzymatic Cathepsin D (CatD) FRET Assay Recombinant CatD was expressed in CHO cells. The assay buffer for CatD was 0.05 M citrate pH 3.5, 10% DMSO final, 5 mM CHAPS. […] The assays was effectively started by the addition of different FRET substrates (20 nM for CatD) and the combination was incubated for one hour. The FRET assay was terminated with by addition of tris buffer, which raises the pH to neutrality, and the fluorescence was determined. The FRET substrate was a peptide with commercially available fluorophore and quencher, on opposite sides of the CatD cleavage site. The CatD substrate peptide sequence was based on sequence #1 of Table 1 from Gulnik et al., FEBS Lett. 413(2):379-384 (1997). Proteolytic cleavage of the FRET substrate released quenching of fluorescence (CatD excitation 500 nm and emission 580 nm). The in vitro CatD FRET assay data for each of the Examples is provided in Table 2, conducted by the first procedure described above. […] Thus, with this surprising selectivity profile, the compounds provided herein are believed to minimize, reduce or completely eliminate any risk of retinal atrophy and abnormal development of the eye and of the retinal pigmented epithelium as it relates to the normal function and activity of CatD.

In assay [3] the test system is BACE1 (Aβ40 from cells stably expressing Amyloid Precursor Protein). Put plainly: In vitro BACE1 cell-based assay (Aβ40 in conditioned medium, HTRF). The method, then:
In Vitro BACE1 Cell-Based Assay The cell-based assay measures inhibition or reduction of Aβ40 in conditioned medium of test compound treated cells expressing amyloid precursor protein. Cells stably expressing Amyloid Precursor Protein (APP) were plated at a density of 45K cells/well in 384 well plates (Corning/BioCoat 354663). The test compounds were then added to cells in 22-point dose response concentrations with the starting concentration being 62.5 μM. The compounds were diluted from stock solutions in DMSO and the final DMSO concentration of the test compounds on cells was 0.625%. The cells were cultivated overnight at 37° C. and 5% CO2 in DMEM supplemented with 10% FBS. After 24 h of incubation with the test compounds, the conditioned media was collected and the Aβ40 levels were determined using HTRF (Homogeneous Time Resolved Fluorescence). […] The HTRF to detect Aβ40 was performed in 384 well plates (Costar 3658). The antibody pair that were used to detect Aβ 40 from cell supernatants were ConfAb40 antibody (Amgen in-house) and biotinylated 6E10 (BIOLEGEND). As an alternative to ConfAb40, a commercially available antibody, Anti-beta Amyloid 1-40 antibody [BDI350] from Abcam, Cambridge, Mass. 02139-1517 (Product code: ab20068), may be used in this assay. […] The conditioned media was incubated with above antibodies and Streptavidin Allophycocyanin Conjugate for 30-60 minutes at 23° C. The final readout was performed on Envision from PerkinElmer.
Background: Time-resolved FRET reads energy transfer from a long-lived donor to a nearby acceptor.

In assay [4] the target is human recombinant BACE2 (Homo sapiens (Human), UniProt Q9Y5Z0). Put plainly: In vitro enzymatic BACE2 FRET assay. The assay is classed as biochemical. To be noted: read-out: BACE2 Enzyme IC50. The method, then:
as §1

[5] abbreviates: Aβ40, 24 h incubation, read-out: BACE1 Cell IC50.
The mark [6] stands for this setting: 24 h, read-out: BACE1 Cell IC50 (μM).

human recombinant BACE1, sequence (P56817 46-501): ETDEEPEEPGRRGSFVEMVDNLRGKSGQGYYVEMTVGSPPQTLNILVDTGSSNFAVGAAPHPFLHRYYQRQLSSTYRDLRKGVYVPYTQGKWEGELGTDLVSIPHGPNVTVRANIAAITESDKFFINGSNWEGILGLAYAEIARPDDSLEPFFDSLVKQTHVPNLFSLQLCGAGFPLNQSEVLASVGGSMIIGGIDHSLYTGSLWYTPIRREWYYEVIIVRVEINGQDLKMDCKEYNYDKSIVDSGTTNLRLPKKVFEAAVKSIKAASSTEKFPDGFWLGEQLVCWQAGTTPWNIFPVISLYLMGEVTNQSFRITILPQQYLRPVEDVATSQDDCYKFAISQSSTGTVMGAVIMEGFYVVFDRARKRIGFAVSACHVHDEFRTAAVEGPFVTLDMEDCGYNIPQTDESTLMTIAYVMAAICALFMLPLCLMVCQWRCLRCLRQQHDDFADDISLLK
Recombinant CatD, sequence (P07339 65-412): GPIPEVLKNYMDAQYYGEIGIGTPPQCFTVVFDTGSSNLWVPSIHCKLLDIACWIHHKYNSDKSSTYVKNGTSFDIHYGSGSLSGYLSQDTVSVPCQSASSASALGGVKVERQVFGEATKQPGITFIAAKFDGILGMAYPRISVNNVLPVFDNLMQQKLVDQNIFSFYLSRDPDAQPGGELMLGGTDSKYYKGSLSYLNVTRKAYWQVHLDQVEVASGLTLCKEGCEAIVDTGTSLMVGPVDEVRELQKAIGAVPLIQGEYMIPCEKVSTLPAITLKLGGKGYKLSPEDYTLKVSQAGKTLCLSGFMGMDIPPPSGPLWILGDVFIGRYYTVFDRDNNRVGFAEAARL
human recombinant BACE2, sequence (Q9Y5Z0 63-518): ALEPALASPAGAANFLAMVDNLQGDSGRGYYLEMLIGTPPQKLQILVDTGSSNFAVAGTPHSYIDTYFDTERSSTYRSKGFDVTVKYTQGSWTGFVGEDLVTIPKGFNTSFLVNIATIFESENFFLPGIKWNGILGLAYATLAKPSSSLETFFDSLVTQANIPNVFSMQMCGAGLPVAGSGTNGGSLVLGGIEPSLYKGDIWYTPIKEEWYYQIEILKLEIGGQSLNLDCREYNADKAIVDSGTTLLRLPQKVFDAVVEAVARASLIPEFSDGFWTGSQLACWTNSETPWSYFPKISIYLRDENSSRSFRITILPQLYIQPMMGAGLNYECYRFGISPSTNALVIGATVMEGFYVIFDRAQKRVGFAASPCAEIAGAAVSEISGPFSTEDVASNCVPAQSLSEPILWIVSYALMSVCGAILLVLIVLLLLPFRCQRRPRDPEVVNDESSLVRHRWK

As a reminder, the IC50 is the midpoint of a concentration-inhibition curve. On to `N#Cc1cnc(/C(F)=C/c2ccc(F)c([C@]34CN(c5ncc(F)cn5)C[C@H]3CSC(N)=N4)c2)cn1` [Example 111, 5-((Z)-2-(3-((4aR,7aS)-2-amino-6-(5-fluoropyrimidin-2-yl)-4,4a,5,6,7,7a-hexahydropyrrolo[3,4-d][1,3]thiazin-7a-yl)-4-fluorophenyl)-1-fluorovinyl)pyrazine-2-carbonitrile], for which the IC50 in assay [1] was determined as 0.00032 µM; in assay [2] it was 19.6 µM; in assay [3] (setting [5]) it was 0.000807 µM; in assay [4], 0.00518 µM.
On to `NC1=N[C@@]2(c3cc(/C=C(\F)c4cnc(OCC(F)(F)C(F)F)cn4)ccc3F)CN(c3ncc(F)cn3)C[C@H]2CS1` [Example 112, (4aR,7aS)-7a-(2-fluoro-5-((Z)-2-fluoro-2-(5-(2,2,3,3-tetrafluoropropoxy)pyrazin-2-yl)vinyl)phenyl)-6-(5-fluoropyrimidin-2-yl)-4,4a,5,6,7,7a-hexahydropyrrolo[3,4-d][1,3]thiazin-2-amine], for which the half-maximal inhibitory concentration (IC50) in assay [1] amounted to 0.108 µM; in assay [2], 1.32 µM; in assay [3] (setting [6]), 0.02 µM; in assay [4], 0.136 µM.
For the compound `NC1=N[C@@]2(c3cc(/C=C(\F)c4cnc(OCC(F)F)cn4)ccc3F)CN(c3ncc(F)cn3)C[C@H]2CS1` [Example 113, (4aR,7aS)-7a-(5-((Z)-2-(5-(2,2-difluoroethoxy)pyrazin-2-yl)-2-fluorovinyl)-2-fluorophenyl)-6-(5-fluoropyrimidin-2-yl)-4,4a,5,6,7,7a-hexahydropyrrolo[3,4-d][1,3]thiazin-2-amine], the 50% inhibitory concentration (IC50) in assay [1] was 0.0226 µM; in assay [2] it was 26.6 µM; in assay [3] (setting [5]), 0.00935 µM; in assay [4], 0.0381 µM.
As to `COC[C@H](C)Oc1cnc(/C(F)=C/c2ccc(F)c([C@]34CN(c5ncc(F)cn5)C[C@H]3CSC(N)=N4)c2)cn1` [Example 114, (4aR,7aS)-7a-(2-fluoro-5-((Z)-2-fluoro-2-(5-(((S)-1-methoxypropan-2-yl)oxy)pyrazin-2-yl)vinyl)phenyl)-6-(5-fluoropyrimidin-2-yl)-4,4a,5,6,7,7a-hexahydropyrrolo[3,4-d][1,3]thiazin-2-amine], the 50% inhibitory concentration (IC50) in assay [1] was 0.00896 µM; in assay [2], 38.7 µM; in assay [3] (setting [5]), 0.00257 µM; in assay [4], 0.0306 µM.
For the compound `C#C[C@H](C)Oc1cnc(/C(F)=C/c2ccc(F)c([C@]34CN(c5ncc(F)cn5)C[C@H]3CSC(N)=N4)c2)cn1` [Example 115, (4aR,7aS)-7a-(5-((Z)-2-(5-((S)-but-3-yn-2-yloxy)pyrazin-2-yl)-2-fluorovinyl)-2-fluorophenyl)-6-(5-fluoropyrimidin-2-yl)-4,4a,5,6,7,7a-hexahydropyrrolo[3,4-d][1,3]thiazin-2-amine], the IC50 in assay [1] turned out to be 0.00101 µM; in assay [2], 18.9 µM; in assay [3] (setting [5]) it was 0.000542 µM; in assay [4], 0.0153 µM.
For the compound `C#CCOc1cnc(/C(F)=C/c2ccc(F)c([C@]34CN(C(=O)OC(C)(C)C)C[C@H]3CSC(N)=N4)c2)cn1` [Example 116, (4aR,7aS)-tert-butyl 2-amino-7a-(2-fluoro-5-((Z)-2-fluoro-2-(5-(prop-2-yn-1-yloxy)pyrazin-2-yl)vinyl)phenyl)-4a,5,7,7a-tetrahydropyrrolo[3,4-d][1,3]thiazine-6(4H)-carboxylate], the IC50 stood at 0.00253 µM in assay [1], 28.6 µM in assay [2], 0.00188 µM in assay [3] (setting [6]) and 0.052 µM in assay [4].
As to `CC#CCOc1cnc(/C(F)=C/c2ccc(F)c([C@]34CN(c5ncc(F)cn5)C[C@H]3CSC(N)=N4)c2)cn1` [Example 117, (4aR,7aS)-7a-(5-((Z)-2-(5-(but-2-yn-1-yloxy)pyrazin-2-yl)-2-fluorovinyl)-2-fluorophenyl)-6-(5-fluoropyrimidin-2-yl)-4,4a,5,6,7,7a-hexahydropyrrolo[3,4-d][1,3]thiazin-2-amine], the IC50 came to 0.000286 µM in assay [1], 13.2 µM in assay [2], 0.00038 µM in assay [3] (setting [5]) and 0.00279 µM in assay [4].
With `C#CCOc1cnc(/C(F)=C/c2ccc(F)c([C@]34CN(C(=O)CC(F)(F)F)C[C@H]3CSC(N)=N4)c2)cn1` [Example 119, 1-((4aR,7aS)-2-amino-7a-(2-fluoro-5-((Z)-2-fluoro-2-(5-(prop-2-yn-1-yloxy)pyrazin-2-yl)vinyl)phenyl)-4a,5,7,7a-tetrahydropyrrolo[3,4-d][1,3]thiazin-6(4H)-yl)-3,3,3-trifluoropropan-1-one], the IC50 in assay [1] amounted to 0.00945 µM; in assay [2], 105 µM; in assay [3] (setting [5]), 0.0265 µM; in assay [4], 0.51 µM.
Turning to `C#CCOc1cnc(/C(F)=C/c2ccc(F)c([C@]34CN(c5ncccn5)C[C@H]3CSC(N)=N4)c2)cn1` [Example 120, (4aR,7aS)-7a-(2-fluoro-5-((Z)-2-fluoro-2-(5-(prop-2-yn-1-yloxy)pyrazin-2-yl)vinyl)phenyl)-6-(pyrimidin-2-yl)-4,4a,5,6,7,7a-hexahydropyrrolo[3,4-d][1,3]thiazin-2-amine], the IC50 in assay [1] was 0.000187 µM; in assay [2], 6.3 µM; in assay [3] (setting [5]), 0.00076 µM; in assay [4], 0.034 µM.
For `C#CCOc1cnc(/C(F)=C/c2ccc(F)c([C@]34CN(C(=O)OC)C[C@H]3CSC(N)=N4)c2)cn1` [Example 121, (4aR,7aS)-methyl 2-amino-7a-(2-fluoro-5-((Z)-2-fluoro-2-(5-(prop-2-yn-1-yloxy)pyrazin-2-yl)vinyl)phenyl)-4a,5,7,7a-tetrahydropyrrolo[3,4-d][1,3]thiazine-6(4H)-carboxylate], the IC50 in assay [1] is 0.00159 µM; in assay [2] it was 47.9 µM; in assay [3] (setting [6]), 0.00679 µM; in assay [4], 0.258 µM.
Turning to `C#CCOc1cnc(/C(F)=C/c2ccc(F)c([C@]34CN(C(=O)CC)C[C@H]3CSC(N)=N4)c2)cn1` [Example 122, 1-((4aR,7aS)-2-amino-7a-(2-fluoro-5-((Z)-2-fluoro-2-(5-(prop-2-yn-1-yloxy)pyrazin-2-yl)vinyl)phenyl)-4a,5,7,7a-tetrahydropyrrolo[3,4-d][1,3]thiazin-6(4H)-yl)propan-1-one], the IC50 in assay [1] worked out at 0.00236 µM; in assay [2], 87.9 µM; in assay [3] (setting [5]), 0.0086 µM; in assay [4], 0.353 µM.
Take `C#CCOc1cnc(/C(F)=C/c2ccc(F)c([C@]34CN(C(=O)OCC)C[C@H]3CSC(N)=N4)c2)cn1` [Example 123, (4aR,7aS)-ethyl 2-amino-7a-(2-fluoro-5-((Z)-2-fluoro-2-(5-(prop-2-yn-1-yloxy)pyrazin-2-yl)vinyl)phenyl)-4a,5,7,7a-tetrahydropyrrolo[3,4-d][1,3]thiazine-6(4H)-carboxylate]: the half-maximal inhibitory concentration (IC50) amounted to 0.00449 µM in assay [1], 36.5 µM in assay [2], 0.00478 µM in assay [3] (setting [6]) and 0.214 µM in assay [4].
Take `C#CCOc1cnc(/C(F)=C/c2ccc(F)c([C@]34CN(C(=O)OC(C)C)C[C@H]3CSC(N)=N4)c2)cn1` [Example 124, (4aR,7aS)-isopropyl 2-amino-7a-(2-fluoro-5-((Z)-2-fluoro-2-(5-(prop-2-yn-1-yloxy)pyrazin-2-yl)vinyl)phenyl)-4a,5,7,7a-tetrahydropyrrolo[3,4-d][1,3]thiazine-6(4H)-carboxylate]: the half-inhibitory concentration (IC50) in assay [1] was 0.00262 µM; in assay [2], 23.8 µM; in assay [3] (setting [6]), 0.00269 µM; in assay [4], 0.0922 µM.
